Assay: xn = mol fraction of the nth substance listed
Conditions: 100 kPa

CO + CC[n+]1ccn(CCOC)c1.O=S(=O)([N-]S(=O)(=O)C(F)(F)F)C(F)(F)F
x2 = 0
Conditions	viscosity [mPa·s]
288.15 K	0.623
293.15 K	0.58
298.15 K	0.541
303.15 K	0.505

CC[n+]1ccn(CCOC)c1.O=S(=O)([N-]S(=O)(=O)C(F)(F)F)C(F)(F)F + CO
viscosity [mPa·s]
Conditions	x1 = 0.1	x1 = 0.1997	x1 = 0.2999	x1 = 0.3966	x1 = 0.5	x1 = 0.5984	x1 = 0.6953	x1 = 0.7934	x1 = 0.9016	x1 = 1
288.15 K	1.982	4.2	–	11.27	–	–	30.4	–	47.6	54.62
293.15 K	1.791	3.71	6.22	9.6	13.37	18.95	25.01	30.37	38.28	–
298.15 K	–	3.297	–	8.27	11.39	16.24	20.9	25.15	31.34	35.49
303.15 K	1.486	2.951	–	7.21	–	13.93	17.85	21.12	26.04	–
308.15 K	1.362	–	–	–	8.55	–	15.37	–	21.94	24.58
313.15 K	1.252	2.408	3.827	5.611	7.51	–	–	–	18.75	20.86
318.15 K	1.155	2.193	–	5.009	6.66	9.11	11.53	13.65	16.34	18.03
